Literature values as cited in patent US7375230B2, “Fermentation and purification of migrastatin and analog” (Kosan Biosciences, Inc., priority 2000, dated 2008).

Tests used:
[1] = system: human esophageal cancer EC17 cells; conditions: compared with clarithromycin and erythromycin
mouse melanoma B16 cells = conditions: compared with clarithromycin and erythromycin

Q: With `CO[C@H]1/C=C/CC/C=C/C(=O)O[C@H]([C@H](C)C(=O)CCCC2CC(=O)NC(=O)C2)/C(C)=C\[C@@H](C)[C@@H]1O` [Migrastatin, migrastatin] as the compound, how does the “effectiveness against the migration of cells” value [1] read?
A: more effective than clarithromycin and erythromycin

Q: And the “effectiveness against the migration of cells” value (mouse melanoma B16 cells)?
A: more effective than clarithromycin and erythromycin
